Assay results as given in US20090192192A1, “INHIBITORS OF BIOFILM FORMATION OF GRAM-POSITIVE AND GRAM-NEGATIVE BACTERIA” (priority 2007, published 2009).

Test system: Pseudomonas aeruginosa PAO1
Experiment: MBEC assay, biofilm formation of P. aeruginosa PAO1
Assay type: cell-based
Details: compound concentration 100 μM, class symbols
Description: The compound to be tested was dissolved in DMSO to obtain a concentration that was 100 times that of the final concentration required (1 mM for the 10 μM assay and 10 mM for the 100 μM assay). 1.5 μL of the above solution was placed into each well of a 96 well plate (final volume in each well=150 μL, final DMSO concentration of 1% (v/v)).
To grow the organism and form a biofilm, a cryogenic stock of the test organism (at −70° C.) was used. A first sub-culture was streaked out onto TSA (tryptic soy agar), upon which the plate was incubated at 35±2° C. for 24 hours and stored wrapped in parafilm at 4° C. afterwards. From this first sub-culture, a second sub-culture was streaked out onto TSA. The plate was incubated at 35±2° C. for 24 hours. The second sub-culture was used within 24 hours starting from the time it was first removed from incubation. Using the second sub-culture an inoculum in 3 mL sterile water that matches a 0.5 McFarland Standard (1.5×10^8 cells per mL) was created in a glass test tube using a sterile cotton swab. 2.2 mL of this solution was diluted in 22 mL 100% TSB (tryptic soy broth) medium to a cell density of approximately […]. The diluted organism was inverted 3-5 times to achieve uniform mixing of the organism. One sample (100 μl) of the diluted organism was used for an inoculum check by serially diluting and spot plating on TSA.
To prepare a challenge plate, […] of the diluted organism was added to each well of a 96 well plate except the sterility control wells. The test compounds were added to the wells to make up final concentrations of 10 μM and […] (1.5 μL/well) in the designated location in the test plate. 128.5 μL of 100% universal neutralizer (1% Tween 80 in Cation Adjusted Mueller Hinton Broth, CAMHB) was placed in each of the wells. 130 μL of media was added to the growth control wells. 128.5 μL of media+1.5 μL of DMSO were added to a second set of growth control wells. 150 μL of media was added to the sterility controls. Each sample was run in triplicate. The plate was covered by a lid with a peg per well and wrapped in parafilm and placed on a shaker in a humidified incubator (GeneVac) at 35±+2° C. for 24 hours set at 110 rpm.
Rinse plate(s) of 0.9% saline (200 μL per well) were prepared in a sterile 96 well microtitre plate. Lid-associated pegs were rinsed in 0.9% saline for approximately 1-2 minutes. The peg lid was transferred to the recovery media (1.0% Tween 80 in CAMHB) then sonicated for 30 minutes to dislodge surviving biofilm. Following sonication, 100 μL from each well of the 96 well plate was placed into the first 12 wells of the first row of a 96 well microtiter plate. 180 μl of 0.9% sterile saline was placed in the remaining rows. A serial dilution (10^0-10^7) was prepared by moving 20 μl down each of the 8 rows. 20 μl from each well was removed and spot plated on a prepared TSA. In the remaining recovery plate, 100 μl of fresh growth media (1.0% Tween 80 in CAMHB) was placed in each well to replace the amount removed. The recovery plate was covered with a regular lid and incubated at 35±2° C. for 24 hours and read visually to confirm antimicrobial activity of the test compounds.
The compounds of the present disclosure have been tested regarding their efficiency to inhibit biofilm formation of Staphylococcus aureus U of C#18 (MRSA), Staphylococcus aureus 456 (MRSA), Staphylococcus epidermidis RP62A, and Pseudomonas aeruginosa PAO1.

Compared with `CCCCCCCCCCNC(=O)Nc1cc(C)nn1C(C)(C)C` [Example 70, 1-(1-tert-butyl-3-methylpyrazol-5-yl)-3-decylurea], `CCCCCCCCCCCCNC(=O)Nc1cc(C)nn1C` [Example 83, 1-(1,3-dimethylpyrazol-5-yl)-3-dodecylurea] is lower in inhibition at 100 µM: greater than 50% for the first, 20 to 50% for the second.

Compared with `CCCCCCCCCCNC(=O)Nc1ccnn1CC` [Example 64, 1-decyl-3-(1-ethylpyrazol-5-yl)urea], `CCCCCCCCCCNC(=O)Nc1ccc(F)cc1` [Example 53, 1-decyl-3-(4-fluorophenyl)urea] is lower in inhibition at 100 µM: 20 to 50% for the first, less than 20% for the second.

First: CCCCCCCCCCCCCCCCNC(=O)Nc1cc(C2CC2)nn1C [Example 90, 1-(3-cyclopropyl-1-methylpyrazol-5-yl)-3-hexadecylurea]
Second: CCCCCCCCCCCCCCCCCCNC(=O)Nc1cc(C(C)(C)C)nn1C [Example 94, 1-(3-tert-butyl-1-methylpyrazol-5-yl)-3-octadecylurea]
The inhibition at 100 µM of the first is lower: less than 20% for the first, 20 to 50% for the second.

`CCCCCCCCCCNC(=O)Nc1cc(C)nn1-c1ccccc1` [Example 74, 1-decyl-3-(3-methyl-1-phenylpyrazol-5-yl)urea] and `CCCCCCCCCCNC(=O)Nc1cc(-c2ccccc2)nn1C` [Example 71, 1-decyl-3-(1-methyl-3-phenylpyrazol-5-yl)urea] cannot be ordered by inhibition at 100 µM: less than 20% for the first, less than 20% for the second.

Compared with `CCCCOCCOCC(=O)Nc1cc(-c2ccccc2)nn1C` [Example 124, 2-(2-butoxyethoxy)-N-(1-methyl-3-phenylpyrazol-5-yl)acetamide], `COCCOCCOCC(=O)Nc1cc(C)nn1C` [Example 128, N-(1,3-dimethylpyrazol-5-yl)-2-(2-(2-methoxyethoxy)ethoxy)acetamide] is lower in inhibition at 100 µM: 20 to 50% for the first, less than 20% for the second.

First: CCCCOCCOCC(=O)N(C)c1ccc(F)cc1 [Example 119, 2-(2-butoxyethoxy)-N-(4-fluorophenyl)-N-methylacetamide]
Second: CCCCCCCCCCCC(=O)N(C)c1ccccc1C(=O)O [Example 26, 2-(N-methyldodecanamido)benzoic acid]
The inhibition at 100 µM of the first is lower: less than 20% for the first, 20 to 50% for the second.

`CCCCCCCCCCCC(=O)N1CCC(C(=O)N(C)C)C1` (stereo not shown) [Example 147, 1-dodecanoyl-N,N-dimethylpyrrolidine-3-carboxamide] and `CCCCCCCCCCCC(=O)N1CCC(C(=O)N2CCCC2)C1` (stereo not shown) [Example 149, 1-(3-(pyrrolidine-1-carbonyl)pyrrolidin-1-yl)dodecan-1-one] cannot be ordered by inhibition at 100 µM: greater than 50% for the first, greater than 50% for the second.

First: CCCCCCCCCCNC(=O)/N=c1/cc(-c2ccccc2)n(C)n1C [Example 73, 1-decyl-3-(1,2-dimethyl-5-phenylpyrazol-3-ylidene)urea]
Second: CCCCCCCCCCNC(=O)N[C@@H](C)c1ccccc1 [Example 59, (S)-1-decyl-3-(1-phenylethyl)urea]
The inhibition at 100 µM of the first is higher: greater than 50% for the first, less than 20% for the second.

First: CCCCCCCCOCCC(=O)Nc1cc(C(C)(C)C)nn1C [Example 116, N-(3-tert-butyl-1-methylpyrazol-5-yl)-3-(octyloxy)propanamide]
Second: CCCCCCCCCCCC(=O)N1CCC(C(=O)Nc2cc(C(C)(C)C)nn2C)C1 (stereo not shown) [Example 154, N-(3-tert-butyl-1-methylpyrazol-5-yl)-1-dodecanoylpyrrolidine-3-carboxamide]
The inhibition at 100 µM of the first is higher: greater than 50% for the first, 20 to 50% for the second.

First: CCCCCCCCCC(=O)N[C@@H]1CCCC[C@H]1O (relative stereo) [Example 34, trans-N-(2-hydroxycyclohexyl)decanamide]
Second: CCCCCCCCCC(=O)NC(=O)N[C@H](C)c1ccccc1 [Example 98, (R)-N-(1-phenylethylcarbamoyl)decanamide]
The inhibition at 100 µM of the first is lower: 20 to 50% for the first, greater than 50% for the second.

First: CCCCCCCCCCCC(=O)Nc1ccccc1C(F)(F)F [Example 23, N-(2-(trifluoromethyl)phenyl)dodecanamide]
Second: CCN(CC)C(=O)C1CCCN(C(=O)CCCCCCCCCNS(C)(=O)=O)C1 (stereo not shown) [Example 143, N,N-diethyl-1-(10-(methylsulfonamido)decanoyl)piperidine-3-carboxamide]
The inhibition at 100 µM of the first is lower: less than 20% for the first, 20 to 50% for the second.
